Laboratory results published in patent US20230257383A1, “COMPOUND SERVING AS BTK INHIBITOR, PREPARATION METHOD THEREFOR, AND USE THEREOF” (CHENGDU HYPERWAY PHARMACEUTICALS CO., LTD., priority 2020, published 2023).

Experiments:
[1] = test system: DOHH2 cell proliferation; experiment: In vitro cell proliferation inhibitory activity test (CTG), DOHH2; format: cell-based; details: Homo sapiens, DOHH-2
Description: (§1) Test Example 4: In Vitro Cell Proliferation Inhibitory Activity Test
(§2) Cells were cultured in 1640 medium, added with 10% inactivated FBS and 1% double antibiotics, and cultured at 37° C. and 5% CO2.
(§3) (1) Cells were routinely cultured until the cell density was 80%-90%, and the cells were harvested when their number reached the requirement.
(§4) (2) Cells were resuspended with corresponding culture medium, counted, and prepared into cell suspension at appropriate density.
(§5) (3) The cell suspension was added to a 96-well plate, 100 μL per well.
(§6) (4) Cells were cultured overnight in a 37° C., 5% CO2 incubator.
(§7) (1) The compounds to be tested were diluted with DMSO to make a stock solution with a final concentration of 20 mM for later use.
(§8) (2) The stock solution was diluted 10 times from 20 mM to 2 mM with DMSO, and then diluted 3 times from 2 mM to 9 concentrations.
(§9) (3) The blank control wells were cells plus 0.5% DMSO, as high-reading control wells.
(§10) (4) Wells with no cells and only medium were used as low-reading control wells.
(§11) 4: Cell treatment with compound
(§12) (1) 24 h after the cells were plated, the compounds acted alone, and 99 μL of growth medium was added to each well, followed by 1 μL of the compound prepared in step 3. The plate was shaken gently to mix uniformly, and then placed in a 37° C., 5% CO2 incubator.
(§13) (2) The cell plate was placed in an incubator for 72 h.
(§14) 5: Detection by CTG method
(§15) (1) The cell plate to be tested was placed at room temperature for 30 min, and 100 μL of medium was discarded from each well.
(§16) (2) 100 μL of CTG reagent (CelltiterGlo kit) was added to each well, placed on a fast shaker for 2 min, and stood at room temperature in the dark for 30 min.
(§17) (3) The chemiluminescent signal value was read with the Envision instrument.
(§18) IC50 was calculated by using GraphPad Prism 8 software. The IC50 (half inhibitory concentration) of the compound was derived using the following nonlinear fitting formula, and the results are shown in the following table:
(§19) Y=Bottom+(Top−Bottom)/(1+10^((Log IC50−X)×HillSlope))
(§20) X: log value of compound concentration, Y: inhibition rate (% inhibition)
(§21) Inhibition rate (% inhibition)=(reading of high-reading control well-reading of compound well)/(reading of high-reading control well-reading of low-reading control well)×100

[2] = test system: TMD8 cell proliferation; experiment: In vitro cell proliferation inhibitory activity test (CTG), TMD8; format: cell-based; details: Homo sapiens, TMD8, 72 h, TMD8 cells
Description: as §1, §2, §3, §4, §5, §6, §7, §8, §9, §10, §11, §12, §13, §14, §15, §16, §17, §18, §19, §20, §21

[3] = Pharmacokinetic test, oral, SD rats; format: in vivo; details: rat, plasma, oral 10 mg/kg
Description: Each test compound was administered orally (10 mg/kg, 3 rats in each group) to SD rats for pharmacokinetic study. […] Animals were fasted overnight before oral administration, and fed again after 4 h of administration. […] At each collection time point, 3 whole blood samples were collected at a the collection volume of about 0.2-0.3 mL. […] The collected plasma was stored at −20° C. before analysis. 20 μL of plasma sample was added into a 1.6 mL 96-well deep-well plate, added with 200 μL of working internal standard solution (the same volume of vehicle was added to the blank instead of internal standard), vortexed for 1 min, and centrifuged at 5800 rpm for 10 min. 100 μL of the supernatant was added to a 96-well injection plate for LC-MS/MS analysis.

AUC(0-inf) [3] [ng·h/mL]	Cmax [3] [ng/mL]	half-life ([3]; read-out: T½ (converted)) [h]	Structure (SMILES)	IC50 [1] [nM]	IC50 [2] [nM]
–	–	–	Nc1nccn2c(C3CCC(CO)OC3)nc(-c3ccc(C(F)(F)c4ccccc4)cc3)c12 (single isomer, unassigned) [Example 111-P1]	116	–
–	–	–	Nc1nccn2c(C34CCC(CO)(CC3)OC4)nc(-c3ccc(C(F)(F)c4ccccc4)cc3)c12 [Example 125]	114	92.4
17200	1550	2.78	Nc1nccn2c(C34CCC(CO)(CC3)OC4)nc(-c3ccc(C(F)(F)c4ccccc4F)cc3)c12 [Example 145]	–	–
